Source: patent US20080021098A1, “Antifungal Compositions” (GIVAUDAN SA, priority 2004, published 2008)

Test system: Cladosporium sphaerospermum IK-65 on cotton fabrics / Cladosporium sphaerospermum MTL on plaster
Assay: Minimal headspace level required for antifungal activity (olfactometer, constant fragrance vapour)
Type: cell-based
Conditions: test phase of 7 days; for Effect on fungal growth: at the headspace level of the same line; for Headspace level required to inhibit fungal growth: constant vapour concentration
Description: In order to determine the effective level of the anti-mould fragrance compounds needed for anti-mould vapour phase activity, an olfactometer is constructed that allows delivery to the fungal growth substrate of a constant concentration of fragrance vapour. A stream of nitrogen is saturated with the fragrance component, and the fragrance-saturated gas is then diluted with water saturated air at different ratios. This mixture is then blown continuously through enclosed acryl-glass boxes and the headspace is measured by sampling 1 ml gas sample with subsequent analysis in the gas chromatograph. Once a steady state in the acryl-glass box is reached (usually within 1-3 days), a fungal inoculum on a relevant substrate is added to the box, and fungal growth during a test phase of 7 days is evaluated.
The following relevant substrate—inoculum combinations were used: • (a) White pieces of cotton fabrics were soaked with a solution of potato dextrose broth diluted to a final concentration of 5% containing spores from the fungal test strain Cladosporium sphaerospermum IK-65 diluted to a final density corresponding to an optical density at 600 nm of 0.01. The test strain IK 65 was isolated from moist fabrics having fungal off odors, and it is a typical strain growing on fabrics as substrate. • (b) White plaster used for fixing ceramic tiles in bathrooms was spread homogenously on the back of 35 mm Petri dishes. On each Petri dish, 160 μl of a fungal inoculum was evenly spread. It contained potato dextrose broth diluted to a final concentration of 50% and spores from the fungal test strain Cladosporium sphaerospermum MTL diluted to a final density corresponding to an optical density at 600 nm of 0.004. The test strain MTL was isolated from a bathroom with vigorous mould growth on the plaster between tiles.

Compound: COc1ccc(C=O)cc1 [4-methoxy-benzaldehyde]
- Effect on fungal growth: over 90% inhibition
- Headspace level required to inhibit fungal growth: 7.5 µg/L

Compound: CC1=CC(C)C(C=O)CC1 (stereo not shown) [1-carboxaldehyde-2,4-dimethyl-cyclohex-3-en]
- Effect on fungal growth: over 90% inhibition
- Headspace level required to inhibit fungal growth: 21 µg/L

Compound: CC1=CCC(C(C)CCO)CC1 (stereo not shown) [3-(4-methyl-3-cyclohexenyl)-butanol]
- Effect on fungal growth: 80% inhibition
- Headspace level required to inhibit fungal growth: 4.5 µg/L

Compound: CC1(C)CCCC2=C1CC(C=O)CC2 (stereo not shown) [8,8-Dimethyl-1,2,3,4,5,6,7,8-octahydro-naphthalene-2-carbaldehyde]
- Effect on fungal growth: complete inhibition
- Headspace level required to inhibit fungal growth: 4.9 µg/L

Compound: COc1ccc(CC(C)C=O)cc1 (stereo not shown) [3-(4-methoxyphenyl)-2-methyl-propanal]
- Effect on fungal growth: complete inhibition
- Headspace level required to inhibit fungal growth: 1.9 µg/L
